Drawing on patent US11214565B2, “Compound, compositions, and methods” (Denali Therapeutics Inc., priority 2015, dated 2022), this text covers IC50 for 53 compounds.

Chain of LRRK2 G2019S enzyme (Q5S007 whole entry G2019S): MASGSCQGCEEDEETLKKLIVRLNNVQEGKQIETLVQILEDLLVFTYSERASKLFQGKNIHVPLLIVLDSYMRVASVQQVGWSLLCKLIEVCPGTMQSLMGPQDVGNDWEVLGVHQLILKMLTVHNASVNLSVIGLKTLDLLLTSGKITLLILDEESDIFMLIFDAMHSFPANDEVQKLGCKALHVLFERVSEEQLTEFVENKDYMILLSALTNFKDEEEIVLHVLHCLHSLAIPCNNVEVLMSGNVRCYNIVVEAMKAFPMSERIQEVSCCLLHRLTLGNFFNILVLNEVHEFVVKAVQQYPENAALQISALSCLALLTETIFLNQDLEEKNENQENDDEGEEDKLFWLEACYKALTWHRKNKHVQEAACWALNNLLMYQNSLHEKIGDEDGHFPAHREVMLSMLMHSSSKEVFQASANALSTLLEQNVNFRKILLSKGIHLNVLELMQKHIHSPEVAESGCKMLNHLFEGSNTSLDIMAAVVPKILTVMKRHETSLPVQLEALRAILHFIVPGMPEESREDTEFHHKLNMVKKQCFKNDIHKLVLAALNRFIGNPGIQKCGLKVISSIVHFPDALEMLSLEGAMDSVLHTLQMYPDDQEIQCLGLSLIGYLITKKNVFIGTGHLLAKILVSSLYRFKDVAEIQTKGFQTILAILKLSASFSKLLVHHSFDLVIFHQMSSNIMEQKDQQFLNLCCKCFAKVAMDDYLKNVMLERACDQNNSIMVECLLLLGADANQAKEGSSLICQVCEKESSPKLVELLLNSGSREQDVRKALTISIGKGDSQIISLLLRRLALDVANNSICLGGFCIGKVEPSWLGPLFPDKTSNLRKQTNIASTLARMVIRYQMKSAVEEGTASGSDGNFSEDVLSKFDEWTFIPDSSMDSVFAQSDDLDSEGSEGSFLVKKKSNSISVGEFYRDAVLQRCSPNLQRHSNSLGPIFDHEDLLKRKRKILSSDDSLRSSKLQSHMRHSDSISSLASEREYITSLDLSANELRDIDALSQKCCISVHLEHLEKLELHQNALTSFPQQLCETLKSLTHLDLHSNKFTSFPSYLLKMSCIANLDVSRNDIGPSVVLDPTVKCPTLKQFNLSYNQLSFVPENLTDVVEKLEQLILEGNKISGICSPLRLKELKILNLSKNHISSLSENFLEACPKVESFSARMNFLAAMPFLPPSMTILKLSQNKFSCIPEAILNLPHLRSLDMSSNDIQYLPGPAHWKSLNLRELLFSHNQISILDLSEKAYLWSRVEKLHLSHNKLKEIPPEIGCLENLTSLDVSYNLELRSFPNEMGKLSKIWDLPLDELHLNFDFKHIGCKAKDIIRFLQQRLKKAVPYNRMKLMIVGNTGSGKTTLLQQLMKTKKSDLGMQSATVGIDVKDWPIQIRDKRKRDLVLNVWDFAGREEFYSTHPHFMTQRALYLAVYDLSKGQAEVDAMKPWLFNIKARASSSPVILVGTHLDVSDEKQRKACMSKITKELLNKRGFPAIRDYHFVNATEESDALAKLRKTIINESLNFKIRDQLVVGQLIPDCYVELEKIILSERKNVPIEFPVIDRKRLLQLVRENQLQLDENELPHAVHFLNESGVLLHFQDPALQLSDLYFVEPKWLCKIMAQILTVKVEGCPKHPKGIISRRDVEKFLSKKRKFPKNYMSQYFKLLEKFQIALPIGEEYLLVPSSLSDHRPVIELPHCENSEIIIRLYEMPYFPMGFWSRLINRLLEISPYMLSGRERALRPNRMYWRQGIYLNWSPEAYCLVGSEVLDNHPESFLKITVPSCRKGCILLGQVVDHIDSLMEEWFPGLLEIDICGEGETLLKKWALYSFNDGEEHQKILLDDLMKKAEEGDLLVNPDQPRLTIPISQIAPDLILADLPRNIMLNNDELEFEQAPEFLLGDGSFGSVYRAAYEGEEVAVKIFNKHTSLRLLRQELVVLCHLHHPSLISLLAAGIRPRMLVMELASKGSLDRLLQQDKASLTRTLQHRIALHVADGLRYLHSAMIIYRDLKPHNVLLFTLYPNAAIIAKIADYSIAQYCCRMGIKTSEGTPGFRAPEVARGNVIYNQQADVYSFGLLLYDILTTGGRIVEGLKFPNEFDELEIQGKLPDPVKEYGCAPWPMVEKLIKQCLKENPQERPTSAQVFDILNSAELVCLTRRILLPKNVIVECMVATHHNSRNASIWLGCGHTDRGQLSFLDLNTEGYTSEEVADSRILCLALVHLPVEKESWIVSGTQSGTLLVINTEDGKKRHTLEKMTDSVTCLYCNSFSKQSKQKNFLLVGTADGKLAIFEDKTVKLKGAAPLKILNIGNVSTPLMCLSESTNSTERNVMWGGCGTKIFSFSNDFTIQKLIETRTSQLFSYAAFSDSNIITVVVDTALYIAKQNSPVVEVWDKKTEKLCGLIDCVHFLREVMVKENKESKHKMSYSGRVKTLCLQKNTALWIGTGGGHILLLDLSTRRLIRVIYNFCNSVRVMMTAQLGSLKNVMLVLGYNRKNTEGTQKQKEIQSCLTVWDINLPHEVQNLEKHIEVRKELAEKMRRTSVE

This experiment concerns the target LRRK2 G2019S enzyme (Homo sapiens (Human), UniProt Q5S007, G2019S). The experiment can be described thus: LRRK2 G2019S TR-FRET biochemical kinase assay (LRRKtide substrate). As to conditions: Table D-4; 5 nM LRRK2, 134 μM ATP, 60 minute reaction, 23° C. The method in brief:
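5 nM LRRK2 G2019S preincubated 20 min with LRRKtide and compound (3.162-fold dilution series) in Tris pH 7.5, MgCl2, EGTA, Brij-35, DTT, then reacted 60 min at 23 °C with 134 μM ATP. EDTA-stopped; pLRRKtide antibody detection, TR-FRET read at 340 nm excitation, 520/490–495 nm emission.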
Turning to `Cc1c(Nc2ncc(C(F)(F)F)c(NCC(F)F)n2)cnn1[C@H]1C[C@H](n2cccn2)C1` [Compound D-87], the concentration for half-maximal inhibition (IC50) was less than 30 nM.

As to `CCNc1nc(Nc2cnn([C@H]3C[C@H](n4cc(F)cn4)C3)c2C)ncc1C(F)(F)F` [Compound D-88], the IC50 was less than 30 nM. Under `CCNc1nc(Nc2cnn([C@H]3C[C@H](c4nncs4)C3)c2C)ncc1C(F)(F)F` [Compound D-89] stands less than 30 nM; under `CNc1nc(Nc2cnn(C3CCC(n4nccn4)C3)c2C)ncc1C(F)(F)F` [Compound D-90], less than 30 nM; under `CCNc1nc(Nc2cnn(C3CCc4c(C)noc43)c2C)ncc1C(F)(F)F` [Compound D-91], less than 30 nM. For the compound `CCNc1nc(Nc2cn(C3CCCn4ccnc43)nc2C)ncc1C(F)(F)F` [Compound D-92], the IC50 fell in the range of 30 to 60 nM.

On to `CCNc1nc(Nc2cnn([C@H]3C[C@@H](n4cccn4)C3)c2C)ncc1C(F)(F)F` [Compound D-93], for which the IC50 is less than 30 nM. Under `CNc1nc(Nc2cn([C@H]3C[C@H](n4cccn4)C3)nc2C)ncc1C(F)(F)F` [Compound D-94] stands less than 30 nM; under `CNc1nc(Nc2cn(C3CCCc4c3cnn4C)nc2C)ncc1C(F)(F)F` [Compound D-95], more than 60 nM. Under `CCNc1nc(Nc2cnn(C3CCc4ncsc43)c2C)ncc1C(F)(F)F` [Compound D-97] stands less than 30 nM. Under `CCNc1nc(Nc2cnn([C@H]3C[C@H](n4cccn4)C3)c2C)ncc1C(F)(F)F` [Compound D-98] stands less than 30 nM. Compound `CNc1nc(Nc2cn(C3CCn4c(Cl)cnc43)nc2C)ncc1C(F)(F)F` [Compound D-99] registered an IC50 of less than 30 nM. In turn, `CCNc1nc(Nc2cn(C(F)(F)C(=O)NC)nc2C)ncc1C(F)(F)F` [Compound D-100] registered a concentration for half-maximal inhibition (IC50) of less than 30 nM. For `CCNc1nc(Nc2cn(C(F)(F)C(N)=O)nc2C)ncc1C(F)(F)F` [Compound D-101], the IC50 was less than 30 nM. For the compound `CCNc1nc(Nc2cnn([C@H]3C[C@H](N4CCCC4=O)C3)c2C)ncc1C(F)(F)F` [Compound D-103], the IC50 was less than 30 nM. Next, `CCNc1nc(Nc2cnn(C3CCn4ccnc43)c2Cl)ncc1C(F)(F)F` [Compound D-104]: less than 30 nM; `Cc1c(Nc2ncc(C(F)(F)F)c(NC3CC3)n2)cnn1[C@H]1C[C@H](n2cccn2)C1` [Compound D-106]: less than 30 nM; `CNc1nc(Nc2cnn([C@H]3C[C@H](n4cnc(C)n4)C3)c2C)ncc1C(F)(F)F` [Compound D-108]: less than 30 nM. Next, `CNc1nc(Nc2cnn([C@H]3C[C@H](n4ncnc4C)C3)c2C)ncc1C(F)(F)F` [Compound D-109]: less than 30 nM; `CCNc1nc(Nc2cnn(C3CCn4cncc43)c2C)ncc1C(F)(F)F` [Compound D-110]: less than 30 nM. `CNc1nc(Nc2cnn([C@H]3C[C@H](n4cccn4)C3)c2C)ncc1Br` [Compound D-111] yielded an IC50 of less than 30 nM. Under `CNc1nc(Nc2cnn(C3CCC(n4ccnn4)C3)c2C)ncc1C(F)(F)F` [Compound D-112] stands less than 30 nM.

In turn, `CCNc1nc(Nc2cn([C@H]3C[C@@H](c4cocn4)C3)nc2C)ncc1C(F)(F)F` [Compound D-113] gave an IC50 of less than 30 nM.

For `CNc1nc(Nc2cnn(C3CCC(n4nccn4)C3)c2C)ncc1C(F)(F)F` [Compound D-114], the IC50 is less than 30 nM. Next, `CNc1nc(Nc2cn(C3(c4ncn(C)n4)CC3)nc2C)ncc1C(F)(F)F` [Compound D-115]: more than 60 nM; `CCNc1nc(Nc2cnn([C@H]3C[C@H](OC(F)F)C3)c2C)ncc1C(F)(F)F` [Compound D-116]: less than 30 nM. On to `CCNc1nc(Nc2cnn([C@H]3C[C@H](n4cncn4)C3)c2C)ncc1C(F)(F)F` [Compound D-117], for which the half-inhibitory concentration (IC50) was less than 30 nM.

For `CCNc1nc(Nc2cnn([C@H]3C[C@@H](n4ncnc4C(F)(F)F)C3)c2C)ncc1C(F)(F)F` [Compound D-118], the IC50 was less than 30 nM. For `Cc1c(Nc2ncc(C(F)(F)F)c(NC3CC3)n2)cnn1[C@H]1C[C@H](n2nccn2)C1` [Compound D-119], the IC50 is less than 30 nM. `CCOc1nc(Nc2cn(C(F)(F)C(N)=O)nc2C)ncc1C(F)(F)F` [Compound D-120] returned an IC50 of less than 30 nM. Under `CCNc1nc(Nc2cnn([C@H]3C[C@@H](n4ccnn4)C3)c2C)ncc1C(F)(F)F` [Compound D-123] stands less than 30 nM.

Consider `CNc1nc(Nc2cnn(C3CCC(n4ccnn4)C3)c2C)ncc1C(F)(F)F` [Compound D-124], for which the IC50 was less than 30 nM. Next, `CNc1nc(Nc2cn(C3CCC(n4ccnn4)C3)nc2C)ncc1C(F)(F)F` [Compound D-125]: 30 to 60 nM; `CCNc1nc(Nc2cnn(C3CCc4cn[nH]c43)c2C)ncc1C(F)(F)F` [Compound D-126]: more than 60 nM; `COc1nc(Nc2cn(C3CCn4ccnc43)nc2C)ncc1C(F)(F)F` [Compound D-127]: less than 30 nM. The compound `CNc1nc(Nc2cnn([C@H]3C[C@H](n4nccn4)C3)c2C)ncc1Br` [Compound D-128] registered an IC50 of less than 30 nM. Next, `COc1nc(Nc2cnn([C@H]3C[C@H](n4nccn4)C3)c2C)ncc1Br` [Compound D-129]: less than 30 nM; `CCNc1nc(Nc2cn(C3CCc4nc[nH]c43)nc2C)ncc1C(F)(F)F` [Compound D-131]: less than 30 nM. Next, `CCNc1nc(Nc2cnn([C@H]3C[C@H](n4cnc(C(F)(F)F)n4)C3)c2C)ncc1C(F)(F)F` [Compound D-135]: less than 30 nM; `CNc1nc(Nc2cn(C3(c4ncn(C)n4)CCC3)nc2C)ncc1C(F)(F)F` [Compound D-136]: less than 30 nM. Next, `CNc1nc(Nc2cn(C3CCn4ccnc43)nc2C)ncc1C(F)(F)F` [Compound D-137]: less than 30 nM; `CCNc1nc(Nc2cn([C@H]3C[C@H](OC(F)F)C3)nc2C)ncc1C(F)(F)F` [Compound D-138]: less than 30 nM. On to `CCNc1nc(Nc2cnn([C@H]3C[C@@H](N4CCCC4=O)C3)c2C)ncc1C(F)(F)F` [Compound D-139], for which the IC50 was less than 30 nM. Next, `CCNc1nc(Nc2cn(C(F)(F)C(=O)NC3CC3)nc2C)ncc1C(F)(F)F` [Compound D-140]: less than 30 nM.

With `CNc1nc(Nc2cnn(C3(CC#N)CC3)c2C)ncc1C(F)(F)F` [Compound D-144], the IC50 was less than 30 nM. Next, `CCNc1nc(Nc2cnn(C3CCn4nccc43)c2C)ncc1C(F)(F)F` [Compound D-145]: less than 30 nM; `CCNc1nc(Nc2cn(C3CCn4nccc43)nc2C)ncc1C(F)(F)F` [Compound D-146]: less than 30 nM; `CCNc1nc(Nc2cnn([C@H]3C[C@@H](S(C)(=O)=O)C3)c2C)ncc1C(F)(F)F` [Compound D-147]: less than 30 nM. Under `CCNc1nc(Nc2cnn([C@H]3C[C@@H](n4nccn4)C3)c2C)ncc1C(F)(F)F` [Compound D-148] stands less than 30 nM; under `CNc1nc(Nc2cnn(C3CCn4cncc43)c2C)ncc1C(F)(F)F` [Compound D-150], less than 30 nM. Under `CCNc1nc(Nc2cnn([C@H]3C[C@H](N4CCOCC4)C3)c2C)ncc1C(F)(F)F` [Compound D-153] stands less than 30 nM; under `CCNc1nc(Nc2cnn([C@H]3C[C@H](n4nccn4)C3)c2C)ncc1Cl` [Compound D-154], less than 30 nM; under `CCNc1nc(Nc2cnn(C3(CC#N)CC3)c2C)ncc1C(F)(F)F` [Compound D-155], less than 30 nM.

A word on the IC50: it is the point on the concentration scale where inhibition reaches its midpoint. Low readings indicate higher potency, high ones lower potency.
